{"source": "patent US20110160166A1", "about": "“Therapeutic composition for the treatment and prevention of athlete's foot and fungal infections of the nail and surrounding tissues” (priority 2009, published 2011)", "key": {"[1]": {"tested_on": "nail fungus", "conditions": "after 48 weeks of daily topical treatment; cited from earlier work"}, "[2]": {"excerpt": "Salicylic acid USP is well known as a strongly antimicrobial pharmaceutical ingredient. It is currently approved by US FDA as an Over-the-Counter active ingredient in anti-dandruff and anti-acne medicaments. Salicylic acid is a skin and eye irritant and a keratolytic, and must be used at low concentrations when applied to human tissue."}, "[3]": {"tested_on": "toenail infections", "conditions": "cited from earlier work"}, "[4]": {"tested_on": "fingernail infections", "conditions": "terbinafine; 6 weeks of treatment, assessment at 18 weeks after completion of therapy; cited from earlier work"}, "[5]": {"target": "Cytochrome P450 2D6 isozyme (Homo sapiens, UniProt P10635)", "sequence (P10635 whole entry)": "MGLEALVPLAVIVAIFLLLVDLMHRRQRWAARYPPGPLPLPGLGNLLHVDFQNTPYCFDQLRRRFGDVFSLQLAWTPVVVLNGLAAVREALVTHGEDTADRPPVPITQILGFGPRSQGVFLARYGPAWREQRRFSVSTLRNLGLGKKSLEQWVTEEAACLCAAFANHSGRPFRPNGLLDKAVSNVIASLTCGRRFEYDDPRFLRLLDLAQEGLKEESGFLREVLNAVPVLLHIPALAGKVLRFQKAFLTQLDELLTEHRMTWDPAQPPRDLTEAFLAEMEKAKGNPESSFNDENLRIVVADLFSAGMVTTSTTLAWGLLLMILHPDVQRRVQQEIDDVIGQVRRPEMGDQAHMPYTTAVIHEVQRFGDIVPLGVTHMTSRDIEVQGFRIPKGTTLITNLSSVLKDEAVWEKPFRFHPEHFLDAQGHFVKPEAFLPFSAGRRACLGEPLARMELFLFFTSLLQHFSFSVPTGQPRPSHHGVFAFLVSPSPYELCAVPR", "conditions": "cited from earlier work"}}, "data": [{"smiles": "Cc1cc(C2CCCCC2)n(O)c(=O)c1", "note": "[Ciclopirox 8%, Ciclopirox]", "values": [{"measurement": "patients who achieved clear or almost clear nails", "setting": "[1]", "value": "< 12", "unit": "%"}]}, {"smiles": "O=C(O)c1ccccc1O", "note": "[Salicylic acid]", "values": [{"measurement": "keratolytic and irritant effects", "setting": "[2]; formulated into an anhydrous base, applied to human nail and surrounding tissues", "value": "dramatically reduced or eliminated"}, {"measurement": "irritation experienced by the subject", "setting": "[2]; high concentrations in anhydrous base", "value": "no irritation"}]}, {"smiles": "CN(C/C=C/C#CC(C)(C)C)Cc1cccc2ccccc12", "note": "[terbinafine]", "values": [{"measurement": "cure rates for toenail infections", "setting": "[3]; terbinafine 250 mg oral, 12 weeks treatment, 36 weeks follow-up after completion of therapy", "value": "38%-59%"}, {"measurement": "clinical relapse rate", "setting": "[3]; terbinafine, toenail infections", "value": "~15", "unit": "%"}, {"measurement": "cure rates for fingernail infections", "setting": "[4]", "value": "59-79%"}, {"measurement": "inhibition of Cytochrome P450 2D6 isozyme", "setting": "[5]", "value": "inhibitor"}]}]}
